Results published in patent publication EP4222493B1, “SCREENING TEST FOR CATSPER MODULATORS” (Westfälische Wilhelms-Universität Münster, priority 2020, dated 2022).

Biological target: T1, CatSper channel (Homo sapiens, UniProt Q7RTX7+Q86XQ3+Q8NEC5+Q96P56)
T1 construct: endogenous in cells; host or cells: Sperm cells in untreated ejaculate from a healthy volunteer
Assay: CatSper modulation test: sperm motility in a test solution essentially free of free calcium, determined by light microscopy
Assay type: cell-based
Conditions: for motility: after about 10 minutes, normalized (first reading in the Ca2+-containing control = 100%)
Procedure: • Fig. 1: Time course of sperm motility in the CatSper modulation test. […] Sperm cells were exposed to a calcium-free buffer (grey curves) containing different concentrations of the exemplified CatSper inhibitor RU1968 at time t = 0 minutes up to t = 90 minutes. A control sample (black, HTF) was kept under Ca^2+-containing conditions. During a subsequent incubation at 37 °C, the motility in the sperm population was determined by light microscopy; the data was normalized (first reading in the Ca^2+-containing control = 100%).
The Ca^2+-containing solution being used in Figure 1 of the present invention corresponds to the HTF buffer (human tubular fluid) used for years in research with spermatozoa (Strünker et al. 2011, Nature 471, 382-386). The calcium-free solution is also based on this buffer. It is very likely that the test can also be carried out with buffer solutions of a different composition, as long as they are kept in the physiological range and comprise the herein mentioned ranges or values for calcium and magnesium. Table 1: Composition of the Ca2+-containing and the Ca2+-free solutions being used in the method of the present invention.
For performing a CatSper-Screening-Test, 178 µl of the calcium-free solution and 2 µl of the solvent used to prepare the test compound solution is used to produce the control solution (calcium-free solution without any test compound). A test solution is produced by adding 178 µl of the calcium-free solution and 2 µl of the test compound solution together. Optionally, another 180 µl of the calcium-containing solution (without any test compound) may further be used in another vial (see particular composition above in Tab. 1). The solutions are then stored at 4 °C and heated to 37 °C before use to warm up the solutions.
A spermatozoa (semen) sample is then obtained from a subject who is a healthy volunteer. A volume of 20 µl of the ejaculate is added to the calcium-free control, calcium-free test and calcium-containing solutions in each micro reaction tube. By low-speed vortex mixing or repeatedly inverting the micro reaction tubes, a homogeneous spermatozoa suspension is generated. Both micro reaction tubes are then incubated at 37 °C for 15 min. After incubation, the mixing step is repeated and the spermatozoa motility is determined for the conditions by counting a total number of 200 sperm cells. The fraction of motile sperm is then compared for the calcium-free control solution with and without any test compound. If a difference in the fraction of motile sperm is determined the test compound is identified as inhibitor / activator or no modulator of the CatSper activity.

Row | SMILES | effect on CatSper ion channel activity in the CatSper-Screening-Test (10 µM, calcium-free solution, Fig. 1) | motility (3 µM inhibitor in Ca2+-free buffer, 37 °C, Fig. 2) | motility (6 µM inhibitor in Ca2+-free buffer, 37 °C, Fig. 2) | motility (12 µM inhibitor in Ca2+-free buffer, 37 °C, Fig. 2) | behaviour of sperm cells from healthy volunteers in the CatSper-Screening-Test (30 µM, calcium-free solution, Fig. 1) | sperm cell motility under essentially Ca2+-free conditions (different concentrations, t = 0 minutes up to t = 90 minutes, 37 °C, Fig. 2)
1 | CC(=O)[C@H]1CC[C@H]2[C@@H]3CCC4=CC(=O)CC[C@]4(C)[C@H]3CC[C@]12C [Progesterone, progesterone] | activates CatSper ion channel activity | – | – | – | – | –
2 | C[C@@H](NCCN(C)C)[C@@H]1CC[C@@H]2[C@H]3CCc4cc(O)ccc4[C@@H]3CC[C@]21C [RU1968] | – | about 106% | ~110% | about 116% | behave in the same way as sperm from patients with CatSper dysfunction | modulates the sperm cell motility in a concentration-dependent manner
